According to ChEMBL document CHEMBL1641419, “Discovery of pyrazolo[1,5-a]pyrimidine-based CHK1 inhibitors: a template-based approach--part 2” (Bioorg Med Chem Lett, 2011):

Experiments:
[1] = molecular target: Cyclin-dependent kinase 2/cyclin A (Homo sapiens, UniProt P24941); test: Inhibition of recombinant CDK2/Cyclin A expressed in insect Sf9 cells assessed as inhibition of [33P]-ATP incorporation into biotinylated histone H1 after 1 hr by liquid scintillation counting
[2] = molecular target: T1, Serine/threonine-protein kinase Chk1 (Homo sapiens, UniProt O14757)
T1 sequence (O14757 whole entry): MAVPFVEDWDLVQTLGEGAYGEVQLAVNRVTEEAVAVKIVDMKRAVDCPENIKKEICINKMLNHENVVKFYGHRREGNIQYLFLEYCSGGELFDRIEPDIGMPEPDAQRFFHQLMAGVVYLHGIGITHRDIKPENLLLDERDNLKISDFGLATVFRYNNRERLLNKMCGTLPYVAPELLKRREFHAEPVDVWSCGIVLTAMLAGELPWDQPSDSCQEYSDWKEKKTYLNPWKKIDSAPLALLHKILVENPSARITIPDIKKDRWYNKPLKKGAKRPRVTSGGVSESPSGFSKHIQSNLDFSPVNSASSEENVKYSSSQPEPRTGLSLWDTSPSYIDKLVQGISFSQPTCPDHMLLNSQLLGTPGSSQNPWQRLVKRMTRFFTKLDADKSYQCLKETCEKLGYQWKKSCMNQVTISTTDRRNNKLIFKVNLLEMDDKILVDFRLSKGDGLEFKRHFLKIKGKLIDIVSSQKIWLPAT
Description: Inhibition of histidine-tagged recombinant CHK1 expressed in baculovirus expression system after 2 hrs by scintillation proximity assay

Compound	IC50 [1] [nM]	IC50 [2] [nM]
Cn1cc(-c2cnn3c(N)c(Br)c(C4CNCCO4)nc23)cn1 (stereo not drawn)	1200	130
Cn1cc(-c2cnn3c(N)c(Br)c(C4CCCCN4)nc23)cn1 (stereo not drawn)	28700	2900
Cn1cc(-c2cnn3c(N)c(Cl)c(C4CCCNC4)nc23)cn1 (stereo not drawn)	310	3
Cn1cc(-c2cnn3c(N)c(-c4cccs4)c(C4CCCNC4)nc23)cn1 (stereo not drawn)	990	–
COC/C=C/c1c(C2CCCNC2)nc2c(-c3cnn(C)c3)cnn2c1N (stereo not drawn)	2200	–
Cn1cc(-c2cnn3c(N)c(Br)c(C4CCCNC4)nc23)cn1 (stereo not drawn)	160	–
Cn1cc(-c2cnn3c(N)c(Br)c(CC4CCCNC4)nc23)cn1 (stereo not drawn)	–	7
Cn1cc(-c2cnn3c(N)c(-c4ccsc4)c(C4CCCNC4)nc23)cn1 (stereo not drawn)	2200	–
Cn1cc(-c2cnn3c(N)c(Br)c(C4CNCCS4)nc23)cn1 (stereo not drawn)	150	–
Cn1cc(-c2cnn3c(N)c(Br)c(C[C@H]4CCC[C@@H](N)C4)nc23)cn1 (relative stereo)	440	5
Cn1cc(-c2cnn3c(N)c(Br)c(CC4CCNC4)nc23)cn1 (stereo not drawn)	–	7
Cn1cc(-c2cnn3c(N)c(Br)c(C4CCNCC4)nc23)cn1	490	35
Cn1cc(-c2cnn3c(N)c(I)c(C4CCCNC4)nc23)cn1 (stereo not drawn)	330	–
Cn1cc(-c2cnn3c(N)c(Br)c(CCN)nc23)cn1	–	34
Cn1cc(-c2cnn3c(N)c(Br)c(-c4cccnc4)nc23)cn1	1300	4000
Cn1cc(-c2cnn3c(N)c(C4CC4)c(C4CCCNC4)nc23)cn1 (stereo not drawn)	170	–
Cn1cc(-c2cnn3c(N)c(Br)c(CC4CCNCC4)nc23)cn1	2800	87
Cn1cc(-c2cnn3c(N)c(-c4ccoc4)c(C4CCCNC4)nc23)cn1 (stereo not drawn)	2300	–
Nc1c(Br)c(C2CCCNC2)nc2c(-c3cccnc3)cnn12 (stereo not drawn)	170	17
Cn1cc(-c2cnn3c(N)c(Br)c(C4CCNC4)nc23)cn1 (stereo not drawn)	510	31
CC#Cc1c(C2CCCNC2)nc2c(-c3cnn(C)c3)cnn2c1N (stereo not drawn)	520	–
Cn1cc(-c2cnn3c(N)c(-c4ccncc4)c(C4CCCNC4)nc23)cn1 (stereo not drawn)	11000	–
Cn1cc(-c2cnn3c(N)c(C#N)c(C4CCCNC4)nc23)cn1 (stereo not drawn)	1700	100
CCc1c(C2CCCNC2)nc2c(-c3cnn(C)c3)cnn2c1N (stereo not drawn)	330	–
Nc1c(Br)c(C2CCCNC2)nc2c(-c3ccoc3)cnn12 (stereo not drawn)	100	–
Cn1cc(-c2cnn3c(N)c(-c4ccccc4)c(C4CCCNC4)nc23)cn1 (stereo not drawn)	8300	–
Cn1cc(-c2c(C3CCCNC3)nc3c(-c4cnn(C)c4)cnn3c2N)cn1 (stereo not drawn)	22000	100
Cn1cc(-c2cnn3c(N)c(CCO)c(C4CCCNC4)nc23)cn1 (stereo not drawn)	48	26
Cc1ncc(-c2cnn3c(N)c(Br)c(C4CCCNC4)nc23)s1 (stereo not drawn)	200	8
Cn1cc(-c2cnn3c(N)c(-c4cccnc4)c(C4CCCNC4)nc23)cn1 (stereo not drawn)	1500	–
